The term IC50 denotes the midpoint of a concentration-inhibition curve.

“Also recorded” adds a separate entry of the source. Like-named read-outs stand apart in the source and are kept apart here.

For assay [1], the system named is marine enrichment cultures. The experiment in a line: Inhibition of sulfide production (Cline assay) in marine enrichment cultures. It is filed as cell-based. Conditions: for IC50: read-out: IC50 Seawater Sulfide Production.
Assay [2] has as its system Desulfovibrio cell suspensions. The following applies: molybdate treated, after 60 minutes; cited from earlier work.
Assay [3] concerns nitrate reducing bacteria. Conditions: molybdate treated cell suspensions; cited from earlier work.
Assay [4] relates to marine enrichment cultures. The experiment in a line: organism not typed. It is filed as cell-based. Conditions: read-out: IC50 Seawater Growth.
[5] abbreviates: marine enrichment cultures, SI>2 classified as selective.

As to `[O]=[Mo](=[O])([O-])[O-]` [molybdate], in assay [1], the “selectivity and potency as inhibitor of sulfidogenesis versus growth, in words” value (shortened to “selectivity and potency as inhibitor”) is “specific inhibitors of sulfide production”; the “selectivity index (SI = growth IC50/sulfide IC50)” value is on record as 100. For the same molecule, the “intracellular ATP relative to controls” value in assay [2] is approximately 10%. The “intracellular ATP relative to controls” value in assay [3] was approximately 80%.
`O=S(O)O` [sulfite]: in assay [1], the “selectivity and potency as inhibitor” value was “only inhibited growth and sulfidogenesis at high millimolar concentrations”.
For `O=[Se](O)O` [selenite], the “selectivity and potency as inhibitor” value in assay [1] was “very potent and selective inhibitors of sulfate reduction”.
Regarding `O=[N+]([O-])O` [nitrate], in assay [1], the “Growth/Sulfide Ratio” value is listed as 41.3; the “fold higher IC50 than MFP” value is approximately 8 fold; the “selectivity and potency as inhibitor” value is listed as “selective inhibitors”; the IC50 was 6.34 mM.
Regarding `OP(O)(O)=S` [thiophosphate], the “selectivity and potency as inhibitor” value in assay [1] is “weak inhibitors and nonselective; also recorded: very weak, nonselective inhibitors of sulfidogenesis”.
For `[O]=[W](=[O])([O-])[O-]` [tungstate], in assay [1], the “selectivity and potency as inhibitor” value is given as “specific inhibitors of sulfide production”; the “selectivity index (SI = growth IC50/sulfide IC50)” value is listed as 589.
For the molecule `[O-][Cl+2]([O-])O` [chlorate], the “selectivity and potency as inhibitor” value in assay [1] is reported as “selective inhibitors of sulfidogenesis”.
On to `[O]=[V]([O-])([O-])[O-]` [vanadate], for which the “selectivity and potency as inhibitor” value in assay [1] is on record as “specific inhibitors of sulfide production”.
For the molecule arsenate, the “selectivity and potency as inhibitor” value in assay [1] is “not selective”.
On to `[O-][I+3]([O-])([O-])O` [periodate], for which the “selectivity and potency as inhibitor” value in assay [1] (setting [5]) is reported as “nonspecific, but potent inhibitors of all growth”.
For the molecule `O=NO` [nitrite], in assay [1], the “selectivity and potency as inhibitor” value is “selective inhibitors”; the “selectivity index (SI = growth IC50/sulfide IC50)” value was “≈ 2”.
For the molecule phosphite, the “selectivity and potency as inhibitor” value in assay [1] is “weak inhibitors and nonselective; also recorded: very weak, nonselective inhibitors of sulfidogenesis”.
As to `[O-][Cl+3]([O-])([O-])O` [perchlorate], in assay [1], the “Growth/Sulfide Ratio” value is 11.19; the “selectivity and potency as inhibitor” value is “selective inhibitors of sulfidogenesis”; the IC50 came out at 3.25 mM. Besides, the IC50 in assay [4] was found to be 36.3 mM.
With `O=S(=O)(O)O` [sulfate], the “selectivity and potency as inhibitor” value in assay [1] was “only inhibited growth and sulfidogenesis at high millimolar concentrations”.
Take `O=[Te](O)O` [tellurite]: in assay [1], the “selectivity and potency as inhibitor” value is “very potent and selective inhibitors of sulfate reduction”.
Take `O=[Te](=O)(O)O` [tellurate]: the “selectivity and potency as inhibitor” value in assay [1] was “very potent and selective inhibitors of sulfate reduction”.
Consider `CS(C)(=O)=O` [dimethyl sulfone], for which, in assay [1] (setting [5]), the “selectivity and potency as inhibitor” value was “very weak and nonspecific inhibitors”.
With methanesulfonate, the “selectivity and potency as inhibitor” value in assay [1] was “very weak and nonspecific inhibitors”.
For the molecule `O=[Se](=O)(O)O` [selenate], the “selectivity and potency as inhibitor” value in assay [1] is “very potent and selective inhibitors of sulfate reduction”.
Take `N.NS(=O)(=O)O` [ammonium sulfamate]: in assay [1], the “selectivity and potency as inhibitor” value is “very weak and nonspecific inhibitors”.

(Values after patent publication US20170198196A1, “METHODS FOR CONTROLLING SOURING IN ENGINEERED SYSTEMS” (The Regents of the University of California, priority 2014, published 2017).)
